Results as given in ChEMBL document CHEMBL5143589, “Drugging the Next Undruggable KRAS Allele-Gly12Asp” (J Med Chem, 2022).

Assays:
[1] = Inhibition of KRAS […] mutant (unknown origin) by HTRF assay; design: species or system Homo sapiens
GTPase KRas [2] = biological target: T1, GTPase KRas (Homo sapiens, UniProt P01116)
Target sequence in this assay (P01116 whole entry, looked up): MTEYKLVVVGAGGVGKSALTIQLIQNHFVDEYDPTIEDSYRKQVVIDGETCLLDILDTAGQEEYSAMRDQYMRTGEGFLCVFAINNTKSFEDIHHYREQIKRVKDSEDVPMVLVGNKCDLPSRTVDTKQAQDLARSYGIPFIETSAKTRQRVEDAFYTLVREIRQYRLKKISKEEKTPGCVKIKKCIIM
Description: Binding affinity to KRAS (unknown origin) assessed as inactivation constant

GTPase KRas [3] = biological target: T1, GTPase KRas; experiment: Binding affinity to KRAS (unknown origin) assessed as inhibition constant
Target sequence in this assay (P01116 whole entry): as the sequence (P01116 whole entry, looked up) above

[4] = Binding affinity to KRAS […] mutant (unknown origin) assessed as dissociation constant; design: species or system Homo sapiens
AGS = experiment: Antiproliferative activity against human AGS cells assessed as reduction of cell viability; format: functional, cell-based
[5] = Inhibition of ERK phosphorylation in human AGS cells; format: cell-based
MKN-1 = experiment: Antiproliferative activity against human MKN-1 cells assessed as reduction of cell viability; format: functional, cell-based

Kd [4]	Compound	IC50 [1]	other results
–	C#Cc1c(F)ccc2cccc(-c3ncc4c(N5CC6CCC(C5)N6)nc(OCC56CCCN5CCC6)nc4c3F)c12	≤ 2 nM	–
–	C=CC(=O)N1CCN(c2ncnc3c(F)c(-c4c(O)cccc4F)c(Cl)cc23)CC1	–	Kinact (GTPase KRas [2]): 0.03 s⁻¹; Ki (GTPase KRas [3]): 31000 nM
–	Oc1cc(-c2ncc3c(N4CC5CCC(C4)N5)nc(OC[C@@]45CCCN4C[C@H](F)C5)nc3c2F)c2ccccc2c1	≤ 2 nM	–
3500 nM	CN1CCC[C@H]1COc1nc(N2CCNCC2)c2cnc(-c3cccc4cccc(Cl)c34)c(F)c2n1	–	–
0.0002 nM	C#Cc1c(F)ccc2cc(O)cc(-c3ncc4c(N5CC6CCC(C5)N6)nc(OC[C@@]56CCCN5C[C@H](F)C6)nc4c3F)c12 [MRTX-1133]	–	IC50 (AGS): 6 nM; IC50 [5]: 2 nM; IC50 (MKN-1): > 3000 nM

Compound	Kd [4]	IC50 [1]	other results
CN1CCC[C@H]1COc1nc(N2CC3CCC(C2)N3)c2cnc(-c3cc(O)cc4ccccc34)c(F)c2n1	0.8 nM	5 nM	–
